The text below walks through data of patent US11584733B2, “Selective histone deacetylase inhibitors for the treatment of human disease” (Shuttle Pharmaceuticals, Inc., priority 2017, dated 2023).

Holding throughout (type): biochemical
Experiment [1] relates to Pan HDAC (HeLa Nuclear Extract). The experiment in a line: Pan HDAC assay (Enzo Fluor-de-Lys fluorometric kit, HeLa Nuclear Extract). How it is done: The Pan HDAC assays described herein were performed as follows:
Materials: Enzo Fluor-de-Lys HDAC fluorometric activity assay kit; 360 nm excitation 460 nm emission Plate Reader; Disposable pipettes; Pipet-aid; Pipette tips; Micro-pipetter; DMSO; Sterile micro-tubes and conical tubes; and Micro-centrifuge.
(§1) Test compounds and control preparation: All test compounds' stock solutions were made in 100% DMSO. Test compound dilutions were made in HDAC Assay buffer with a final concentration of DMSO less than or equal to 1%. Vehicle control was HDAC Assay buffer with 1% DMSO.
(§2) The reagents for the assay were prepared as follows:
(§3) 1. All kit components were defrosted and these, and all dilutions described below, were kept on ice until use. All undiluted kit components are stable for several hours on ice.
2. A sufficient amount of HeLa Nuclear Extract (BML-KI140) or other HDAC source diluted in Assay Buffer (BML-KI143) was prepared to provide for the assays that were performed (# of wells×15 μl). A 30-fold dilution of the HeLa Extract means that 15 μL contains 0.5 μl of the undiluted Extract, an appropriate amount to use per well.
3. Dilution(s) of SAHA and/or Test Inhibitors were prepared in Assay Buffer (BML-K1143). Since 10 μl were used per well, and since the final volume of the HDAC reaction was 50 μl, these inhibitor dilutions were 5× their final concentration.
4. Dilution(s) of the Fluor de Lys® Substrate (BML-KI104; 50 mM) were prepared in Assay Buffer (BML-K1143) that were 2× the desired final concentration(s). For inhibitor screening, substrate concentrations at or below the Km are recommended. Twenty-five μL were used per well. Initial dilutions of 25-fold or greater in Assay Buffer (2.0 mM or less) yielded stable solutions (see NOTE on freezing and thawing below). Rapid mixing and dilution into room temperature buffer helped to prevent precipitation at high substrate concentration. […]
(§4) 6. Samples were read in a microtiter-plate reading fluorimeter capable of excitation at a wavelength in the range 350-380 nm and detection of emitted light in the range 440-460 nm.

The next experiment concerns the target Human recombinant HDAC1 (Homo sapiens, UniProt Q13547). Briefly: HDAC isomer assay, Fluor-de-Lys, HDAC1. How it is done: (§5) The HDAC isomer (HDAC1, 3, and 6) assays were performed as follows:
(§6) Materials: Human recombinant HDAC isomer (HDAC1, HDAC3, and HDAC6); Fluor-de-Lys HDAC substrates; 360 nm excitation 460 nm emission Plate Reader; Disposable pipettes; Pipet-aid; Pipette tips; Micro-pipetter; DMSO; Sterile micro-tubes and conical tubes; and Micro-centrifuge.
as §1, §2, §3
(§7) 2. A sufficient amount of HDAC source diluted in Assay Buffer (BML-KI143) was prepared to provide for the assays that were performed (# of wells×15 μl). A 30-fold dilution of the HeLa Extract means that 15p L contains 0.5 μl of the undiluted Extract, an appropriate amount to use per well.
(§8) 3. Dilution(s) of SAHA and/or Test Inhibitors were prepared in Assay Buffer (BML-KI143). […]
as §4

The next experiment has as its target Human recombinant HDAC3 (Homo sapiens, UniProt O15379). Briefly: HDAC isomer assay, Fluor-de-Lys, HDAC3. How it is done:
as §5, §6, §1, §2, §3, §7, §8, §4

Human recombinant HDAC1, sequence (Q13547 whole entry): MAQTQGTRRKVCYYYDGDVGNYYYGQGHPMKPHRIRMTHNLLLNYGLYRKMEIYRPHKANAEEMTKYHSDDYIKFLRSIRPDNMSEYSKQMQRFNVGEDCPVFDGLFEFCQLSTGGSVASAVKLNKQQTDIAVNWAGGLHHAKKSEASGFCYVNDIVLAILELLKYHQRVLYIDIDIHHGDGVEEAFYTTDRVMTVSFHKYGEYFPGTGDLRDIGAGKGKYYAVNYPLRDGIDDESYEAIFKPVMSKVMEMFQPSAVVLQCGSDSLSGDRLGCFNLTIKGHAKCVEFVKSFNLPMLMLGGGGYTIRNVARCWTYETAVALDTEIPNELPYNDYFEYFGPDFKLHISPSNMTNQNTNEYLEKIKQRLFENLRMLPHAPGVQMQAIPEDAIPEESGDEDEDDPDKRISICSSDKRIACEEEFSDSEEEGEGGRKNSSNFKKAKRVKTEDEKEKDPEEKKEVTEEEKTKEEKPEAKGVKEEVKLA
Human recombinant HDAC3, sequence (O15379 whole entry): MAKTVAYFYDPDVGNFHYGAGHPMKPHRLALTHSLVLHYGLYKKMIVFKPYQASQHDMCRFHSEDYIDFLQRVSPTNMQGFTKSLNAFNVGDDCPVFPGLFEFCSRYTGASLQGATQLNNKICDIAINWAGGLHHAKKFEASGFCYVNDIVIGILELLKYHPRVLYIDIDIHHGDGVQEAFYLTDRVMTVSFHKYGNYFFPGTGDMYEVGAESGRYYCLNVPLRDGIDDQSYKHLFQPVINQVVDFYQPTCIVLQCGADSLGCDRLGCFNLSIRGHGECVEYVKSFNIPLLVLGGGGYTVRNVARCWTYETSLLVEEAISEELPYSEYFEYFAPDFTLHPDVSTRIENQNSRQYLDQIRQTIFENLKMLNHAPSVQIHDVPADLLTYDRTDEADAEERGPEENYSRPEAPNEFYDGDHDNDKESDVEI
Human recombinant HDAC3, sequence (Q9Y618 395-489 partner limits assumed): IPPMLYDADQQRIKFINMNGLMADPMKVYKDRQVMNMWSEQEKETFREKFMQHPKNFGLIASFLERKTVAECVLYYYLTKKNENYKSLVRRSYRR

Broadly, the EC50 is the concentration needed to bring the measured effect to its halfway point. On to `O=C(CCCCCCC(=O)NC1CCC(=O)NC1=O)NO` (stereo not shown) [SP-2-59, N^1-(2,6-dioxopiperidin-3-yl)-N^8-hydroxyoctanediamide], for which, in experiment [1] (FIG. 4), the EC50 was determined as 16400 nM. Besides, the “inhibitor activity in the pan-HDACs assays” value in experiment [1] (between 5 μM and 15 μM, FIGS. 2 to 4) is “minimal inhibitor activity”.
What is called IC50 is the midpoint of a concentration-inhibition curve. On to `O=C(CCCCCCC(=O)Nc1cccc2c1CN(C1CCC(=O)NC1=O)C2=O)NO` (stereo not shown) [SP-2-93, N^1-(2-(2,6-dioxopiperidin-3-yl)-1-oxoisoindolin-4-yl)-N^8-hydroxyoctanediamide], for which the IC50 in experiment [1] (Example 6, FIG. 18, 2 mg/mL formulation in 5% DMSO/40% PEG 400/55% PBS, read-out: IC50 against the PAN HDAC) is 1890 nM; on Human recombinant HDAC1 (Example 6, FIG. 18, 2 mg/mL formulation in 5% DMSO/40% PEG 400/55% PBS, read-out: IC50 against HDAC1 protein), 1540 nM; on Human recombinant HDAC3 (Example 6, FIG. 18, 2 mg/mL formulation in 5% DMSO/40% PEG 400/55% PBS, read-out: IC50 against HDAC3 protein), 3070 nM. In addition, the EC50 on Human recombinant HDAC1 (Example 4, FIG. 9) was 1540 nM; on Human recombinant HDAC3 (Example 4, FIG. 10) it was 3070 nM.
